From patent US9073895B2 (Boehringer Ingelheim International GmbH, priority 2010, dated 2015)

Legend:
[1] = molecular target: T1, recombinant human FLAP protein (Homo sapiens, UniProt P20292); assay: FLAP binding assay (SPA, displacement of [125I]L-691,831); details: membranes of sf9 cells expressing human FLAP, [125I]L-691,831 probe; read-out: hFLAP binding IC50
T1 construct: made in house; host or cells: Sf9 insect cells (membrane fraction, 100,000 x g pellet)
T1 sequence (P20292 1-161): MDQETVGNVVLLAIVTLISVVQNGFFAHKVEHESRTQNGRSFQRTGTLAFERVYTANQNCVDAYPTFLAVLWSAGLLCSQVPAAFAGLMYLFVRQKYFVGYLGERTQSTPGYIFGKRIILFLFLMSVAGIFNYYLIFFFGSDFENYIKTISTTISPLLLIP
Experimental: Compounds are assessed for the ability to bind to FLAP in a binding assay that measures compound-specific displacement of an iodinated (^125I) FLAP inhibitor via a Scintillation Proximity Assay format (adapted from S. Charleson et al., Mol. Pharmacol., 1992, 41, 873-879).
Cell pellets produced from sf9 insect cells expressing recombinant human FLAP protein are resuspended in buffer A [15 mM Tris-HCl (pH 7.5), 2 mM MgCl2, 0.3 mM EDTA, 1 mM PMSF]. The cells are lysed with a Dounce homogenizer and the material is centrifuged at 10,000×g for 10 minutes. The supernatant is then collected and centrifuged at 100,000×g for 60 minutes. To prepare membrane protein for an assay, an aliquot of the 100,000×g pellet is resuspended in 1 ml of buffer A, Dounce homogenized, and finally subjected to polytron mixing (30 seconds). Membrane protein (25 μl, 5 μg) is mixed with WGA SPA beads (Amersham) and stirred for 1 h. To an assay plate (Perkin Elmer FlexiPlate) is added 25 μl of test compound prepared in Binding buffer [100 mM Tris (pH 7.5), 140 mM NaCl, 5% glycerol, 2 mM EDTA, 0.5 mM TCEP, 0.05% Tween 20], 25 μl of [^125I]L-691,831 (an iodinated analog of MK-591, Charleson et al. Mol. Pharmacol., 41, 873-879, 1992) and finally 50 μl of the bead/protein mixture. (final concentrations: beads, 200 μg/well; protein, 5μg/well; [^125I] probe, 0 08 nM/well(17 nCi/well). The plates are shaken for 2 h before reading on a Microbeta plate reader. Non-specific binding is determined by the addition of 10 μM cold L-691,831 compound.

[2] = system: synthesis of LTB4 in human whole blood; assay: Human whole blood LTB4 production inhibition assay; type: cell-based; details: heparinized human whole blood, calcimycin 20 μM, plasma LTB4; read-out: HuWB IC50
Experimental: Compounds are additionally tested in a human whole blood assay to determine their ability to inhibit the synthesis of LTB4 in a cellular system. Compounds are combined with heparinized human whole blood and incubated for 15 minutes at 37° C. Calcimycin (20 μM final, prepared in phosphate-buffered saline, pH 7.4) is then added and the mixture is incubated for another 30 minutes at 37° C. The samples are centrifuged for 5 min at low speed (1500×g) and the plasma layer is removed. Plasma LTB4 concentrations are then measured using an antibody-based homogenous time-resolved fluorescence method (CisBio, Bedford, Mass.).

Row | IC50 [1] | IC50 [2] | SMILES
1 | 68 nM | 2220 nM | Nc1ncc(-c2ccc(C3(C(=O)Nc4ccc5c(c4)OCCO5)CCOCC3)cc2)cn1 [Example 12, 4-[4-(2-aminopyrimidin-5-yl)phenyl]-N-(2,3-dihydro-1,4-benzodioxin-6-yl)tetrahydro-2H-pyran-4-carboxamide]
2 | 16.7 nM | ≥ 3000 nM | Nc1ncc(-c2ccc(C3(C(=O)Nc4ccc(Cl)c(Cl)c4)CCOCC3)cc2)cn1 [Example 13, 4-[4-(2-aminopyrimidin-5-yl)phenyl]-N-(3,4-dichlorophenyl)tetrahydro-2H-pyran-4-carboxamide]
3 | 8.95 nM | 2250 nM | COc1ccc(NC(=O)C2(c3ccc(-c4cnc(N)nc4)cc3)CCOCC2)cc1Cl [Example 14, 4-[4-(2-aminopyrimidin-5-yl)phenyl]-N-(3-chloro-4-methoxyphenyl)tetrahydro-2H-pyran-4-carboxamide]
4 | 23.5 nM | > 3000 nM | Nc1ncc(-c2ccc(C3(C(=O)Nc4cc(Cl)cc(Cl)c4)CCOCC3)cc2)cn1 [Example 15, 4-[4-(2-aminopyrimidin-5-yl)phenyl]-N-(3,5-dichlorophenyl)tetrahydro-2H-pyran-4-carboxamide]
5 | 10.7 nM | 636 nM | Nc1ncc(-c2ccc(C3(C(=O)Nc4ccc(-c5ccccc5)cc4)CCOCC3)cc2)cn1 [Example 16, 4-[4-(2-aminopyrimidin-5-yl)phenyl]-N-(biphenyl-4-yl)tetrahydro-2H-pyran-4-carboxamide]
6 | 16 nM | 1700 nM | Nc1ncc(-c2ccc(C3(C(=O)Nc4ccc5ncsc5c4)CCOCC3)cc2)cn1 [Example 18, 4-[4-(2-aminopyrimidin-5-yl)phenyl]-N-(1,3-benzothiazol-6-yl)tetrahydro-2H-pyran-4-carboxamide]
7 | 16 nM | 1340 nM | Nc1ncc(-c2ccc(C3(C(=O)Nc4nc(-c5ccccc5)cs4)CCOCC3)cc2)cn1 [Example 20, 4-[4-(2-aminopyrimidin-5-yl)phenyl]-N-(4-phenyl-1,3-thiazol-2-yl)tetrahydro-2H-pyran-4-carboxamide]
8 | 12 nM | > 3000 nM | Nc1ncc(-c2ccc(C3(C(=O)Nc4cccc(OC(F)(F)F)c4)CCOCC3)cc2)cn1 [Example 21]
9 | 60.5 nM | > 3000 nM | Nc1ncc(-c2ccc(C3(C(=O)Nc4cccc(Oc5ccccc5)c4)CCOCC3)cc2)cn1 [Example 22, 4-[4-(2-aminopyrimidin-5-yl)phenyl]-N-(3-phenoxyphenyl)tetrahydro-2H-pyran-4-carboxamide]
10 | 59.7 nM | > 3000 nM | Nc1ncc(-c2ccc(C3(C(=O)Nc4ccc(C(F)(F)F)cn4)CCOCC3)cc2)cn1 [Example 23, 4-[4-(2-aminopyrimidin-5-yl)phenyl]-N-[5-(trifluoromethyl)pyridin-2-yl]tetrahydro-2H-pyran-4-carboxamide]
11 | 95 nM | > 3000 nM | Nc1ncc(-c2ccc(C3(C(=O)Nc4cccc(-c5ccccc5)c4)CCOCC3)cc2)cn1 [Example 24, 4-[4-(2-aminopyrimidin-5-yl)phenyl]-N-(biphenyl-3-yl)tetrahydro-2H-pyran-4-carboxamide]
12 | 8.65 nM | 501 nM | Nc1ncc(-c2ccc(C3(C(=O)Nc4ccc(-c5csnn5)cc4)CCOCC3)cc2)cn1 [Example 25, 4-[4-(2-aminopyrimidin-5-yl)phenyl]-N-[4-(1,2,3-thiadiazol-4-yl)phenyl]tetrahydro-2H-pyran-4-carboxamide]
13 | 26 nM | > 3000 nM | Nc1ncc(-c2ccc(C3(C(=O)Nc4cccc(-c5cnco5)c4)CCOCC3)cc2)cn1 [Example 26, 4-[4-(2-aminopyrimidin-5-yl)phenyl]-N-[3-(1,3-oxazol-5-yl)phenyl]tetrahydro-2H-pyran-4-carboxamide]
14 | 5.5 nM | 207 nM | Nc1ncc(-c2ccc(C3(C(=O)Nc4ccc(-c5cnco5)cc4)CCOCC3)cc2)cn1 [Example 27, 4-[4-(2-aminopyrimidin-5-yl)phenyl]-N-[4-(1,3-oxazol-5-yl)phenyl]tetrahydro-2H-pyran-4-carboxamide]
15 | 18 nM | 2240 nM | COC(=O)c1sc(-c2ccccc2)cc1NC(=O)C1(c2ccc(-c3cnc(N)nc3)cc2)CCOCC1 [Example 30, methyl 3-[({4-[4-(2-aminopyrimidin-5-yl)phenyl]tetrahydro-2H-pyran-4-yl}carbonyl)amino]-5-phenylthiophene-2-carboxylate]
16 | 46.5 nM | 1120 nM | N#Cc1ccc(NC(=O)C2(c3ccc(-c4cnc(N)nc4)cc3)CCOCC2)nc1 [Example 32, 4-[4-(2-aminopyrimidin-5-yl)phenyl]-N-(5-cyanopyridin-2-yl)tetrahydro-2H-pyran-4-carboxamide]
17 | 42.5 nM | > 3000 nM | Nc1ncc(-c2ccc(C3(C(=O)Nc4cccc(-c5ccncc5)c4)CCOCC3)cc2)cn1 [Example 33, 4-[4-(2-aminopyrimidin-5-yl)phenyl]-N-[3-(pyridin-4-yl)phenyl]tetrahydro-2H-pyran-4-carboxamide]
18 | 11.7 nM | 160 nM | Nc1ncc(-c2ccc(C3(C(=O)Nc4ccc(-c5ccncc5)cc4)CCOCC3)cc2)cn1 [Example 34, 4-[4-(2-aminopyrimidin-5-yl)phenyl]-N-[4-(pyridin-4-yl)phenyl]tetrahydro-2H-pyran-4-carboxamide]
19 | 13.3 nM | > 3000 nM | Nc1ncc(-c2ccc(C3(C(=O)Nc4nc(-c5ccccc5)ns4)CCOCC3)cc2)cn1 [Example 36, 4-[4-(2-aminopyrimidin-5-yl)phenyl]-N-(3-phenyl-1,2,4-thiadiazol-5-yl)tetrahydro-2H-pyran-4-carboxamide]
20 | 35 nM | > 3000 nM | Nc1ncc(-c2ccc(C3(C(=O)Nc4cc(-c5ccccc5)no4)CCOCC3)cc2)cn1 [Example 37, 4-[4-(2-aminopyrimidin-5-yl)phenyl]-N-(3-phenyl-1,2-oxazol-5-yl)tetrahydro-2H-pyran-4-carboxamide]
21 | 59.5 nM | > 3000 nM | Cc1cc(C)c2ccc(NC(=O)C3(c4ccc(-c5cnc(N)nc5)cc4)CCOCC3)nc2n1 [Example 38, 4-[4-(2-aminopyrimidin-5-yl)phenyl]-N-(5,7-dimethyl-1,8-naphthyridin-2-yl)tetrahydro-2H-pyran-4-carboxamide]
22 | 55 nM | 1920 nM | Nc1ncc(-c2ccc(C3(C(=O)Nc4ccc(OC(F)(F)F)cc4)CCOCC3)cc2)cn1 [Example 39, 4-[4-(2-aminopyrimidin-5-yl)phenyl]-N-[4-(trifluoromethoxy)phenyl] tetrahydro-2H-pyran-4-carboxamide]
23 | 29 nM | 1220 nM | N#Cc1ccc(NC(=O)C2(c3ccc(-c4cnc(N)nc4)cc3)CCOCC2)cc1C(F)(F)F [Example 40, 4-[4-(2-aminopyrimidin-5-yl)phenyl]-N-[4-cyano-3-(trifluoromethyl)phenyl] tetrahydro-2H-pyran-4-carboxamide]
24 | 120 nM | > 3000 nM | Nc1ncc(-c2ccc(C3(C(=O)Nc4ccc(C(F)(F)F)cc4)CCOCC3)cc2)cn1 [Example 41, 4-[4-(2-aminopyrimidin-5-yl)phenyl]-N-[4-(trifluoromethyl)phenyl] tetrahydro-2H-pyran-4-carboxamide]
25 | 12.3 nM | > 3000 nM | CCOC(=O)c1sc2ccc(NC(=O)C3(c4ccc(-c5cnc(N)nc5)cc4)CCOCC3)cc2c1C [Example 43, ethyl 5-[({4-[4-(2-aminopyrimidin-5-yl)phenyl]tetrahydro-2H-pyran-4-yl}carbonyl)amino]-3-methyl-1-benzothiophene-2-carboxylate]
26 | 6.2 nM | 459 nM | Nc1ncc(-c2ccc(C3(C(=O)Nc4ccc(-c5cccnc5)cc4)CCOCC3)cc2)cn1 [Example 45, 4-[4-(2-aminopyrimidin-5-yl)phenyl]-N-[4-(pyridin-3-yl)phenyl]tetrahydro-2H-pyran-4-carboxamide]
27 | 180 nM | > 3000 nM | Cc1cc(NC(=O)C2(c3ccc(-c4cnc(N)nc4)cc3)CCOCC2)cc(C(F)(F)F)c1 [Example 46, 4-[4-(2-aminopyrimidin-5-yl)phenyl]-N-[3-methyl-5-(trifluoromethyl)phenyl] tetrahydro-2H-pyran-4-carboxamide]
